Data taken from PubChem BioAssay AID434987 (Southern Research Specialized Biocontainment Screening …, 2010).
Active and inactive are the calls of the source. No rule for the calls is given here.

Test system: M. tuberculosis H37Rv growth inhibition with meropenem
Test: dose response, H37Rv, with and without meropenem (AID 434987);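 also: growth over 7 days at 37 °C before Alamar Blue read on day 9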
[1] = M. tuberculosis H37Rv growth inhibition, measured here: IC50 without meropenem
[2] = M. tuberculosis H37Rv growth inhibition, measured here: IC90 without meropenem
[3] = measured here: IC90 with meropenem

SMILES: CCn1nc(C)c([N+](=O)[O-])c1C(=O)NNC(=O)c1ccccc1Cl
- IC50: > 100 µM (inactive)
- IC50 [1]: > 100 µM
- IC90 [2]: > 100 µM
- IC90 [3]: > 100 µM

SMILES: CCOc1ccc(-c2cnc3n2CCC3)cc1
- IC50: 35 µM
- IC50 [1]: > 100 µM
- IC90 [2]: > 100 µM
- IC90 [3]: > 100 µM

SMILES: COc1cccc(/C=N/NC(=O)c2cnccn2)c1O
- IC50: 2.58 µM
- IC50 [1]: 44.8 µM
- IC90 [2]: > 100 µM
- IC90 [3]: 13.9 µM

SMILES: Cc1cccc2c(C(=O)n3cccn3)cc(-c3ccccc3Cl)nc12
- IC50: 7.95 µM
- IC50 [1]: 52.7 µM
- IC90 [2]: > 100 µM
- IC90 [3]: 26.8 µM

SMILES: CCOc1cc(N2CCOCC2)c(OCC)cc1NC(=O)COc1cccc(CC)c1
- IC50: > 100 µM (inactive)
- IC50 [1]: > 100 µM
- IC90 [2]: > 100 µM
- IC90 [3]: > 100 µM

SMILES: Cc1cc(Br)cc2c(C(=O)NCC3CCCO3)cc(-c3ccccc3)nc12 (stereo not drawn)
- IC50: 95.6 µM (inactive)
- IC50 [1]: > 100 µM
- IC90 [2]: > 100 µM
- IC90 [3]: > 100 µM

SMILES: CCC1Nc2ncnc(N3CCN(c4ccccc4)CC3)c2N(Cc2ccc(Br)cc2)C1=O (stereo not drawn)
- IC50: > 100 µM (inactive)
- IC50 [1]: > 100 µM
- IC90 [2]: > 100 µM
- IC90 [3]: > 100 µM

SMILES: COc1ccc(CNC(=O)C2CCN(S(=O)(=O)c3c(C)noc3/C=C/N(C)C)CC2)cc1
- IC50: > 100 µM (inactive)
- IC50 [1]: > 100 µM
- IC90 [2]: > 100 µM
- IC90 [3]: > 100 µM

SMILES: C/C(=N\NC(=O)c1csc2ccccc12)c1ccc(O)cc1
- IC50: > 100 µM (inactive)
- IC50 [1]: > 100 µM
- IC90 [2]: > 100 µM
- IC90 [3]: > 100 µM

SMILES: COc1ccc(NC(=O)CN2CCN(C3c4ccccc4-c4ccccc43)CC2)c(OC)c1
- IC50: > 100 µM (inactive)
- IC50 [1]: > 100 µM
- IC90 [2]: > 100 µM
- IC90 [3]: > 100 µM

SMILES: O=C(Nc1cccc(S(=O)(=O)NCc2ccco2)c1)c1cc(-c2ccc(F)cc2)nc2ccccc12
- IC50: 97.4 µM (inactive)
- IC50 [1]: > 100 µM
- IC90 [2]: > 100 µM
- IC90 [3]: > 100 µM

SMILES: Cc1cc(=O)n2c(-c3ccccc3C)n[nH]c2n1
- IC50: 51 µM (inactive)
- IC50 [1]: 62.4 µM
- IC90 [2]: > 100 µM
- IC90 [3]: > 100 µM

SMILES: Cc1cccc(NC(=S)NC2CC3C=CC2C3)c1 (stereo not drawn)
- IC50: 22.3 µM (inactive)
- IC50 [1]: 23.8 µM
- IC90 [2]: > 100 µM
- IC90 [3]: > 100 µM

SMILES: O=C(N/N=C/c1cc([N+](=O)[O-])ccc1O)C1CC1
- IC50: 4.14 µM
- IC50 [1]: 58.9 µM
- IC90 [2]: > 100 µM
- IC90 [3]: > 100 µM

SMILES: O=C(OC(C(=O)Nc1ccc(Cl)cc1C(F)(F)F)c1ccccc1)C1=COCCO1 (stereo not drawn)
- IC50: 1.23 µM
- IC50 [1]: > 100 µM
- IC90 [2]: > 100 µM
- IC90 [3]: > 100 µM

SMILES: COc1ccc(-c2csc(Nc3ncccc3C)n2)cc1OC
- IC50: 61.3 µM (inactive)
- IC50 [1]: > 100 µM
- IC90 [2]: > 100 µM
- IC90 [3]: > 100 µM

SMILES: O=C(N[C@@H](Cc1ccccc1)C(=O)CCl)OCc1ccccc1
- IC50: 8.88 µM (inactive)
- IC50 [1]: 17.3 µM
- IC90 [2]: 41.9 µM
- IC90 [3]: 46.9 µM

SMILES: C=CCNCCCOc1ccc(Cl)cc1C(C)(C)C
- IC50: 48.1 µM (inactive)
- IC50 [1]: 58.2 µM
- IC90 [2]: 72.3 µM
- IC90 [3]: 52.6 µM

SMILES: CCOC(=O)c1nn(-c2ccc(F)cc2)c2nc(Nc3ccccc3)cc(=O)n12
- IC50: > 100 µM (inactive)
- IC50 [1]: > 100 µM
- IC90 [2]: > 100 µM
- IC90 [3]: > 100 µM

SMILES: Cc1ccc(C(=O)Nc2ccc(N3CCN(C(=O)c4cccs4)CC3)cc2)c(Cl)c1
- IC50: > 100 µM (inactive)
- IC50 [1]: > 100 µM
- IC90 [2]: > 100 µM
- IC90 [3]: > 100 µM

SMILES: COc1ccc(C(=O)Nc2oc(-c3ccccc3)c(-c3ccccc3)c2C#N)cc1OC
- IC50: 25.2 µM (inactive)
- IC50 [1]: 38.7 µM
- IC90 [2]: > 100 µM
- IC90 [3]: > 100 µM

SMILES: COC(=O)c1ccc(/C=N/NC(=O)c2cccc(F)c2)cc1
- IC50: > 100 µM (inactive)
- IC50 [1]: > 100 µM
- IC90 [2]: > 100 µM
- IC90 [3]: > 100 µM

SMILES: COc1ccc(Cn2c(=O)[nH]c3cc(C(=O)N4CCN(c5ccccc5F)CC4)ccc3c2=O)cc1
- IC50: > 100 µM (inactive)
- IC50 [1]: > 100 µM
- IC90 [2]: > 100 µM
- IC90 [3]: > 100 µM

SMILES: O=C(OCC(=O)N1CCc2ccccc21)c1ccc(Cl)nc1
- IC50: 22.8 µM (inactive)
- IC50 [1]: 44 µM
- IC90 [2]: > 100 µM
- IC90 [3]: > 100 µM

SMILES: O=C1c2ccccc2N2C(=O)c3ccccc3C2N1O (stereo not drawn)
- IC50: 13.9 µM
- IC50 [1]: 39.3 µM
- IC90 [2]: > 100 µM
- IC90 [3]: 56.4 µM

SMILES: O=C(CSc1nc2ncc(Cl)cc2[nH]1)Nc1cccc(F)c1
- IC50: > 100 µM (inactive)
- IC50 [1]: > 100 µM
- IC90 [2]: > 100 µM
- IC90 [3]: > 100 µM

SMILES: CC(=O)c1ccc(OCCCC(=O)OCC(=O)N2CCN(c3ccccc3)CC2)cc1
- IC50: 78.7 µM (inactive)
- IC50 [1]: > 100 µM
- IC90 [2]: > 100 µM
- IC90 [3]: > 100 µM

SMILES: CC(=O)c1ccccc1OCCOc1ncnc2sccc12
- IC50: > 100 µM (inactive)
- IC50 [1]: > 100 µM
- IC90 [2]: > 100 µM
- IC90 [3]: > 100 µM

SMILES: CCCCNC(=O)c1onc(CSc2ccc(F)c(F)c2)c1C(=O)O
- IC50: 27.8 µM (inactive)
- IC50 [1]: 54.4 µM
- IC90 [2]: > 100 µM
- IC90 [3]: 56.8 µM

SMILES: COc1cc(OC)c(OC)cc1/C=C1\CCC(C2CCCC2)C1=O (stereo not drawn)
- IC50: 55.9 µM (inactive)
- IC50 [1]: 77.5 µM
- IC90 [2]: > 100 µM
- IC90 [3]: > 100 µM

SMILES: Cc1cc(=O)[nH]c(N/N=C/c2c(F)c(F)c(F)c(F)c2F)n1
- IC50: 64.6 µM (inactive)
- IC50 [1]: 92.1 µM
- IC90 [2]: > 100 µM
- IC90 [3]: 82.3 µM

SMILES: Cc1ccc2[nH]c(O)c(N=Nc3nc4ccccc4s3)c2c1
- IC50: 6.76 µM
- IC50 [1]: > 100 µM
- IC90 [2]: > 100 µM
- IC90 [3]: > 100 µM

SMILES: COc1ccc(NC(=O)CCn2c(=O)c3cccn3c3ccccc32)cc1
- IC50: > 100 µM (inactive)
- IC50 [1]: > 100 µM
- IC90 [2]: > 100 µM
- IC90 [3]: > 100 µM

SMILES: Cc1ccccc1C(=O)NC(=S)Nc1sc2c(c1C#N)CCC(C)C2 (stereo not drawn)
- IC50: > 100 µM (inactive)
- IC50 [1]: > 100 µM
- IC90 [2]: > 100 µM
- IC90 [3]: > 100 µM

SMILES: Cc1ccc(Nc2nc(N)nc(CC#N)n2)cc1
- IC50: 61.3 µM (inactive)
- IC50 [1]: 75.6 µM
- IC90 [2]: > 100 µM
- IC90 [3]: 92.7 µM

SMILES: CCc1ccc(NC(=O)C2C3/C=C\CCCCC32)cc1 (stereo not drawn)
- IC50: 72 µM (inactive)
- IC50 [1]: > 100 µM
- IC90 [2]: > 100 µM
- IC90 [3]: > 100 µM

SMILES: Cc1ccc2c(Cl)cc(Cl)c(OCc3c(C)noc3C)c2n1
- IC50: 25.3 µM
- IC50 [1]: > 100 µM
- IC90 [2]: > 100 µM
- IC90 [3]: > 100 µM

SMILES: CCOC(=O)c1ccc(NC(=O)Cc2coc3cc4c(cc23)CCC4)cc1
- IC50: > 100 µM (inactive)
- IC50 [1]: > 100 µM
- IC90 [2]: > 100 µM
- IC90 [3]: > 100 µM

SMILES: Cc1onc(-c2ccccc2)c1C(=O)Nc1ccc(-c2nnc3n2CCCCC3)cc1
- IC50: 23.8 µM (inactive)
- IC50 [1]: 29.3 µM
- IC90 [2]: 71.2 µM
- IC90 [3]: 38.6 µM

SMILES: Cc1cc(C)c2c(N)c(S(=O)c3ccc(C(C)(C)C)cc3)sc2n1 (stereo not drawn)
- IC50: > 100 µM (inactive)
- IC50 [1]: > 100 µM
- IC90 [2]: > 100 µM
- IC90 [3]: > 100 µM

SMILES: COCCSc1nc2sc3c(c2c(=O)n1-c1ccccc1)CCN(C)C3
- IC50: 38.1 µM (inactive)
- IC50 [1]: 41.9 µM
- IC90 [2]: 54.3 µM
- IC90 [3]: 53.3 µM

SMILES: CCCc1cc(C(=O)Nc2ccc(C(C)=O)cc2)no1
- IC50: 11.7 µM (inactive)
- IC50 [1]: 24.4 µM
- IC90 [2]: > 100 µM
- IC90 [3]: 48.8 µM
